Laboratory results reported in patent publication US9901536B2, “Composition for improving skin, containing pomegranate concentrate as active ingredient” (HLSCIENCE CO., LTD., priority 2014, dated 2018).
Several values for one entry are separate records, joined by “and”; a condition that tells them apart may be missing. Equal entries are not always repeated. One block for each molecule: values may come before it.

Assays:
[1] = test system: elastase; test: Elastase inhibition assay; format: biochemical, human; settings: 10 μM
Protocol: The HDF-N fibroblasts were used to measure the effect of the test solution on elastase activity. For this, the cultured HDF-N cells were treated with 0.2 M Tris-HCl (pH 8.0) containing 0.1% Triton X-100 and lysed by sonication. After centrifuging at 3,000 rpm for 20 minutes and taking the supernatant, the activity of the enzyme was measured by quantifying it and the total protein quantity. For measurement of the elastase activity, the homogenized fibroblasts were treated with 200 μg/mL elastase, 0.2 M Tris-HCl buffer and the sample at different concentrations. After adding 50 mM STANA, a substrate specific for elastase, and incubating at 37° C., absorbance was measured at 405 nm. The degree of elastase activity inhibition was compared with a control group not treated with the test solution. Phosphoramidon was used as a positive control group.

[2] = test system: procollagen synthesis in HDF-N cells; test: Procollagen synthesis (PIP EIA) in HDF-N cells; format: cell-based, human; settings: 10 ng/ml, 24 h
Protocol: (§1) For testing of wrinkle improvement, normal human primary dermal fibroblasts, neonatal (HDF-N) derived from the human neonatal foreskin were used. The cells were seeded onto the bottom of a culture dish and cultured at 37° C. in a 5% carbon dioxide incubator after adding the fibroblast basal medium (FBM, Lonza, CC-3131) containing 0.1% insulin, 0.1% rhFGF, 0.1% gentamicin and 2% FBS.
In order to measure the effect of promoting procollagen synthesis of the test solution, HDF-N cells were seeded onto a 48-well plate with 1×10^4 cells/well and then cultured for 24 hours. Then, after maintaining a starvation state for 24 hours, the cells were treated with the test solution diluted with the cell culture medium FBM (without supplements) at different concentrations and then cultured for 24 hours. The cultured cells were recovered and the quantity of procollagen was measured using the procollagen type I c-peptide (PIP) EIA kit (Takara, MK101). The cells adherent to the bottom were washed with PBS and lysed with 1 N NaOH to determine the total amount of proteins. Then, the quantity of procollagen per given quantity of proteins was calculated.

[3] = test system: hyaluronan synthesis in HaCaT cells; test: Hyaluronan synthesis in keratinocytes by ELISA; format: cell-based, human; settings: 20 mM, 24 h
Protocol: Human keratinocytes (HaCaT cells, ATCC) were seeded onto the bottom of a culture dish and cultured at 37° C. in a 5% carbon dioxide incubator after adding Dulbecco's modified Eagle's medium (DMEM, Welgene, Korea) containing penicillin (100 IU/mL), streptomycin (10 μg/mL) and 10% FBS.
The skin-moisturizing effect of the samples was evaluated by measuring the degree of hyaluronan synthesis in keratinocytes by ELISA. For this, the HaCaT cells were seeded onto a plate at 5×10^4 cells/well and cultured for 24 hours. 24 hours later, the cells were treated with the test samples diluted with the DMEM cell culture medium (without supplements) and cultured for 24 hours. The cultured cells were recovered and the quantity of hyaluronan was measured by hyaluronan ELISA (R&D Systems, DY3614). The cells adherent to the bottom were washed with PBS and lysed with 1 N NaOH to determine the total amount of proteins. Then, the quantity of hyaluronan per given quantity of proteins was calculated.
The protein quantity was measured using a Bio-Rad DC protein kit according to the Lowry method.

[4] = test system: melanin synthesis in Melan-a cells; test: Inhibition of melanin synthesis in Melan-a cells; format: cell-based, mouse; settings: 100 μM, 6 days
Protocol: For evaluation of skin-whitening effect, Melan-a cells derived from C57BL/6J (black, a/a) mouse, provided by Dr. Dorothy C Benette (St George's Hospital, London, UK), were used as an immortalized cell line (Bennett D C, Cooper P J, Hart I R. A line of non-tumorigenic mouse melanocyte, syngeneic with the B16 melanoma and requiring a tumor promoter for growth. Int J Cancer 1987; 39: 414-418). The cells were cultured at 37° C. in a 5% carbon dioxide incubator after adding the RPMI 1640 medium containing 10% fetal bovine serum, 50 U/mL penicillin, 50 μg/mL streptomycin, 200 nM phorbol 12-myristate 13-acetate (PMA).
Melan-a cells were seeded onto a 24-well plate with 3×10^4 cells/well. After culturing the cells in an incubator for 24 hours so that the cells adhered well to the plate, the test solution diluted with a culture medium to different concentrations were added to the respective wells. The test sample was treated once in 3 days, for a total of 6 days. […] The cells were lysed with 1 N NaOH and then centrifuged. After separating the supernatant, the total amount of proteins was quantified by measuring absorbance at 405 nm. The melanin content was determined from the protein quantity.

[5] = test system: MMP-1; test: Inhibition of UV-induced MMP-1 expression in HDF-N cells; format: cell-based, human; settings: UVA 5 J/cm^2, 1 μM
Protocol: as §1
The effect of the test solution on UV-induced MMP-1 expression was evaluated in order to evaluate the wrinkle-improving effect of the sample by measuring the activity of matrix metalloproteinase (MMP-1) by immuno-ELISA assay. HDF-N cells were seeded onto a 24-well plate with 2×10^4 cells/well and then cultured for 24 hours. 24 hours later, after discarding the medium and washing with DPBS, 200 μL of DPBS was added and 5 J/cm^2 of UV-A was irradiated. After treating the cells with the sample diluted to an adequate concentration, the cells were cultured for 24 hours. Then, the culture medium was taken and the quantity of MMP-1 was measured with the human total MMP-1 ELISA kit (R&D Systems, DY901). The measured quantity of MMP-1 was calibrated with the total protein quantity.

- elastase activity, % control [1]: 74.90 ± 5.962 % control
- elastase activity, % control ([1]; listed as phosphoramidon): 74.9 % control
Molecule: CC(C)C[C@H](NP(=O)(O)O[C@@H]1O[C@@H](C)[C@H](O)[C@@H](O)[C@H]1O)C(=O)N[C@@H](Cc1c[nH]c2ccccc12)C(=O)O [Phosphoramidon]

Molecule: Transforming growth factor-β [TGF-β]
- procollagen production, % control [2]: 150.8 % control and 150.88 ± 5.366 % control

Molecule: CC(=O)N[C@H]1C(O)O[C@H](CO)[C@@H](O)[C@@H]1O (stereo partly drawn) [NAG, N-Acetyl-D-glucosamine]
- hyaluronan, % control [3]: 224.8 % control and 224.85 ± 16.937 % control

Molecule: OC[C@H]1O[C@@H](Oc2ccc(O)cc2)[C@H](O)[C@@H](O)[C@@H]1O [Arbutin]
- melanin content, % control [4]: 73.54 ± 5.397 % control
- melanin content, % control ([4]; listed as arbutin): melanin synthesis was inhibited

Molecule: CC1=C(/C=C/C(C)=C/C=C/C(C)=C/C(=O)O)C(C)(C)CCC1 [Retinoic acid]
- MMP-1 production, % UV− [5]: 171.68 ± 10.422 % UV−
- MMP-1 production, % UV− ([5]; listed as retinoic acid): 171.6 % UV−
